Assay results: PubChem BioAssay AID2060503 (Molecular Pharmacology Branch, DTP, NCI, 2025)
pIC50: −log10 of the molar value.
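Note: spheroids exposed to agents for 7 days before readout.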

Each compound was assayed on 817829-284-R-J1-PDC complex spheroids, viability (assay: Anticancer human tumor 817829-284-R-J1-PDC patient-derived colon adenocarcinoma cell line growth inhibition [GQUAD]). Details: curve of first compound; second compound 0.0316 µM.
How it was run: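 Multi-cell-type spheroids of tumor cells with HUVEC and mesenchymal stem cells, treated with drug combinations. Concentrations descend in half-log steps from near clinical Cmax, or from 10 microM where Cmax is unknown; viability read-out.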
With COc1ncnc(C2CC2)c1-c1ncc2cnn(Cc3ccc(-c4nc(C(F)(F)F)cn4C(C)C)cc3)c2n1 + Cc1[nH]c2ccc(F)cc2c1-c1nc2c3cccnc3c3ncccc3c2[nH]1 the pIC50 was under 5.00. C=CC(=O)N1CCN(c2nc(=O)n(-c3c(C)ccnc3C(C)C)c3nc(-c4c(O)cccc4F)c(F)cc23)C(C)C1 (stereo unspecified) + Cc1cnc(CNC(=O)c2c(=O)c3ccc(N4CCCN(C)CC4)nc3n3c2sc2ccccc23)cn1 showed a pIC50 of 5.10. With CC(C)n1c(=O)n(C)c2cnc3cc(F)c(-c4ccc(OCCCN5CCCCC5)nc4)cc3c21 + Cc1cnc(CNC(=O)c2c(=O)c3ccc(N4CCCN(C)CC4)nc3n3c2sc2ccccc23)cn1 the pIC50 was over 7.50. COc1ccc([C@@H](O)c2cc(-c3ncnc4cc(N5CCOCC5)ccc34)c(F)cc2Cl)nn1 + Cc1cnc(CNC(=O)c2c(=O)c3ccc(N4CCCN(C)CC4)nc3n3c2sc2ccccc23)cn1 gave a pIC50 of 6.62. With Nc1ccn(C2OC(CO)C(O)C2(F)F)c(=O)n1 (stereo unspecified) + Cc1cnc(CNC(=O)c2c(=O)c3ccc(N4CCCN(C)CC4)nc3n3c2sc2ccccc23)cn1 the pIC50 was over 7.50. O=C(c1cc(Cc2n[nH]c(=O)c3ccccc23)ccc1F)N1CCN(C(=O)C2CC2)CC1 + Cc1cnc(CNC(=O)c2c(=O)c3ccc(N4CCCN(C)CC4)nc3n3c2sc2ccccc23)cn1 was tested, and the pIC50 was 5.97. O=c1[nH]cc(F)c(=O)[nH]1 + Cc1cnc(CNC(=O)c2c(=O)c3ccc(N4CCCN(C)CC4)nc3n3c2sc2ccccc23)cn1 was tested, and the pIC50 was 6.10.

Same assay, conditions: curve of first compound; second compound 0.1 µM
Compound COc1ncnc(C2CC2)c1-c1ncc2cnn(Cc3ccc(-c4nc(C(F)(F)F)cn4C(C)C)cc3)c2n1 + Cc1[nH]c2ccc(F)cc2c1-c1nc2c3cccnc3c3ncccc3c2[nH]1 has a pIC50 of under 5.00. C=CC(=O)N1CCN(c2nc(=O)n(-c3c(C)ccnc3C(C)C)c3nc(-c4c(O)cccc4F)c(F)cc23)C(C)C1 (stereo unspecified) + Cc1cnc(CNC(=O)c2c(=O)c3ccc(N4CCCN(C)CC4)nc3n3c2sc2ccccc23)cn1 gave a pIC50 of over 7.50. CC(C)n1c(=O)n(C)c2cnc3cc(F)c(-c4ccc(OCCCN5CCCCC5)nc4)cc3c21 + Cc1cnc(CNC(=O)c2c(=O)c3ccc(N4CCCN(C)CC4)nc3n3c2sc2ccccc23)cn1 showed a pIC50 of over 7.50. With COc1ccc([C@@H](O)c2cc(-c3ncnc4cc(N5CCOCC5)ccc34)c(F)cc2Cl)nn1 + Cc1cnc(CNC(=O)c2c(=O)c3ccc(N4CCCN(C)CC4)nc3n3c2sc2ccccc23)cn1 the pIC50 was over 7.50. Nc1ccn(C2OC(CO)C(O)C2(F)F)c(=O)n1 (stereo unspecified) + Cc1cnc(CNC(=O)c2c(=O)c3ccc(N4CCCN(C)CC4)nc3n3c2sc2ccccc23)cn1 gave a pIC50 of over 7.50. With O=C(c1cc(Cc2n[nH]c(=O)c3ccccc23)ccc1F)N1CCN(C(=O)C2CC2)CC1 + Cc1cnc(CNC(=O)c2c(=O)c3ccc(N4CCCN(C)CC4)nc3n3c2sc2ccccc23)cn1 the pIC50 was over 7.50. Compound O=c1[nH]cc(F)c(=O)[nH]1 + Cc1cnc(CNC(=O)c2c(=O)c3ccc(N4CCCN(C)CC4)nc3n3c2sc2ccccc23)cn1 has a pIC50 of over 7.50.

Same assay, conditions: curve of first compound; second compound 0.316 µM
For COc1ncnc(C2CC2)c1-c1ncc2cnn(Cc3ccc(-c4nc(C(F)(F)F)cn4C(C)C)cc3)c2n1 + Cc1[nH]c2ccc(F)cc2c1-c1nc2c3cccnc3c3ncccc3c2[nH]1, the pIC50 was under 5.00. C=CC(=O)N1CCN(c2nc(=O)n(-c3c(C)ccnc3C(C)C)c3nc(-c4c(O)cccc4F)c(F)cc23)C(C)C1 (stereo unspecified) + Cc1cnc(CNC(=O)c2c(=O)c3ccc(N4CCCN(C)CC4)nc3n3c2sc2ccccc23)cn1 was tested, and the pIC50 was over 7.50. With CC(C)n1c(=O)n(C)c2cnc3cc(F)c(-c4ccc(OCCCN5CCCCC5)nc4)cc3c21 + Cc1cnc(CNC(=O)c2c(=O)c3ccc(N4CCCN(C)CC4)nc3n3c2sc2ccccc23)cn1 the pIC50 was over 7.50. COc1ccc([C@@H](O)c2cc(-c3ncnc4cc(N5CCOCC5)ccc34)c(F)cc2Cl)nn1 + Cc1cnc(CNC(=O)c2c(=O)c3ccc(N4CCCN(C)CC4)nc3n3c2sc2ccccc23)cn1 showed a pIC50 of over 7.50. Nc1ccn(C2OC(CO)C(O)C2(F)F)c(=O)n1 (stereo unspecified) + Cc1cnc(CNC(=O)c2c(=O)c3ccc(N4CCCN(C)CC4)nc3n3c2sc2ccccc23)cn1 was tested, and the pIC50 was over 7.50. With O=C(c1cc(Cc2n[nH]c(=O)c3ccccc23)ccc1F)N1CCN(C(=O)C2CC2)CC1 + Cc1cnc(CNC(=O)c2c(=O)c3ccc(N4CCCN(C)CC4)nc3n3c2sc2ccccc23)cn1 the pIC50 was over 7.50. Compound O=c1[nH]cc(F)c(=O)[nH]1 + Cc1cnc(CNC(=O)c2c(=O)c3ccc(N4CCCN(C)CC4)nc3n3c2sc2ccccc23)cn1 has a pIC50 of over 7.50.

Same assay, conditions: curve of first compound; second compound 1 µM
Work on COc1ncnc(C2CC2)c1-c1ncc2cnn(Cc3ccc(-c4nc(C(F)(F)F)cn4C(C)C)cc3)c2n1 + Cc1[nH]c2ccc(F)cc2c1-c1nc2c3cccnc3c3ncccc3c2[nH]1 yielded a pIC50 of under 5.00. Work on C=CC(=O)N1CCN(c2nc(=O)n(-c3c(C)ccnc3C(C)C)c3nc(-c4c(O)cccc4F)c(F)cc23)C(C)C1 (stereo unspecified) + Cc1cnc(CNC(=O)c2c(=O)c3ccc(N4CCCN(C)CC4)nc3n3c2sc2ccccc23)cn1 yielded a pIC50 of over 7.50. CC(C)n1c(=O)n(C)c2cnc3cc(F)c(-c4ccc(OCCCN5CCCCC5)nc4)cc3c21 + Cc1cnc(CNC(=O)c2c(=O)c3ccc(N4CCCN(C)CC4)nc3n3c2sc2ccccc23)cn1 was tested, and the pIC50 was over 7.50. COc1ccc([C@@H](O)c2cc(-c3ncnc4cc(N5CCOCC5)ccc34)c(F)cc2Cl)nn1 + Cc1cnc(CNC(=O)c2c(=O)c3ccc(N4CCCN(C)CC4)nc3n3c2sc2ccccc23)cn1 showed a pIC50 of over 7.50. With Nc1ccn(C2OC(CO)C(O)C2(F)F)c(=O)n1 (stereo unspecified) + Cc1cnc(CNC(=O)c2c(=O)c3ccc(N4CCCN(C)CC4)nc3n3c2sc2ccccc23)cn1 the pIC50 was over 7.50. O=C(c1cc(Cc2n[nH]c(=O)c3ccccc23)ccc1F)N1CCN(C(=O)C2CC2)CC1 + Cc1cnc(CNC(=O)c2c(=O)c3ccc(N4CCCN(C)CC4)nc3n3c2sc2ccccc23)cn1 gave a pIC50 of over 7.50. O=c1[nH]cc(F)c(=O)[nH]1 + Cc1cnc(CNC(=O)c2c(=O)c3ccc(N4CCCN(C)CC4)nc3n3c2sc2ccccc23)cn1 gave a pIC50 of over 7.50.

Same assay, conditions: curve of first compound; second compound 3.16 µM
Work on COc1ncnc(C2CC2)c1-c1ncc2cnn(Cc3ccc(-c4nc(C(F)(F)F)cn4C(C)C)cc3)c2n1 + Cc1[nH]c2ccc(F)cc2c1-c1nc2c3cccnc3c3ncccc3c2[nH]1 yielded a pIC50 of under 5.00. C=CC(=O)N1CCN(c2nc(=O)n(-c3c(C)ccnc3C(C)C)c3nc(-c4c(O)cccc4F)c(F)cc23)C(C)C1 (stereo unspecified) + Cc1cnc(CNC(=O)c2c(=O)c3ccc(N4CCCN(C)CC4)nc3n3c2sc2ccccc23)cn1 gave a pIC50 of over 7.50. Work on CC(C)n1c(=O)n(C)c2cnc3cc(F)c(-c4ccc(OCCCN5CCCCC5)nc4)cc3c21 + Cc1cnc(CNC(=O)c2c(=O)c3ccc(N4CCCN(C)CC4)nc3n3c2sc2ccccc23)cn1 yielded a pIC50 of over 7.50. With COc1ccc([C@@H](O)c2cc(-c3ncnc4cc(N5CCOCC5)ccc34)c(F)cc2Cl)nn1 + Cc1cnc(CNC(=O)c2c(=O)c3ccc(N4CCCN(C)CC4)nc3n3c2sc2ccccc23)cn1 the pIC50 was over 7.50. In the case of Nc1ccn(C2OC(CO)C(O)C2(F)F)c(=O)n1 (stereo unspecified) + Cc1cnc(CNC(=O)c2c(=O)c3ccc(N4CCCN(C)CC4)nc3n3c2sc2ccccc23)cn1, the pIC50 was over 7.50. Work on O=C(c1cc(Cc2n[nH]c(=O)c3ccccc23)ccc1F)N1CCN(C(=O)C2CC2)CC1 + Cc1cnc(CNC(=O)c2c(=O)c3ccc(N4CCCN(C)CC4)nc3n3c2sc2ccccc23)cn1 yielded a pIC50 of over 7.50. Compound O=c1[nH]cc(F)c(=O)[nH]1 + Cc1cnc(CNC(=O)c2c(=O)c3ccc(N4CCCN(C)CC4)nc3n3c2sc2ccccc23)cn1 has a pIC50 of over 7.50.

Same assay, conditions: curve of first compound; second compound 10 µM
COc1ncnc(C2CC2)c1-c1ncc2cnn(Cc3ccc(-c4nc(C(F)(F)F)cn4C(C)C)cc3)c2n1 + Cc1[nH]c2ccc(F)cc2c1-c1nc2c3cccnc3c3ncccc3c2[nH]1 showed a pIC50 of 7.49.
